Experiment [1] concerns Candida duobushaemulonii AR Bank #391. The experiment can be described thus: MIC determination by in vitro antifungal assay. The class given is cell-based. On the procedure: (§1) The antifungal agent amphotericin B (AmB) was purchased from VWR (Radnor PA, USA). AmB was dissolved in DMSO at a final concentration of 5 mg/mL and was stored at −20° C., protected from light. Candida albicans American Type Culture Collection (ATCC) 10231 (strain A), C. albicans ATCC 64124 (B), and C. albicans ATCC MYA-2876 (C) were obtained from Utah State University. C. albicans ATCC 90819 (D), C. albicans ATCC MYA-2310 (E), C. albicans ATCC MYA-1237 (F), C. albicans ATCC MYA-1003 (G), Candida glabrata ATCC 2001 (H), Candida krusei ATCC 6258 (I), Candida parapsilosis ATCC 22019 (J), Cryptococcus neoformans ATCC MYA-895 (M), Aspergillus terreus ATCC MYA-3633 (N), and Aspergillus flavus ATCC MYA-3631 (0) were obtained from the American Type Culture Collection (ATCC; Manassas, VA, USA). Aspergillus nidulans ATCC 38163 (P) was obtained from University of Kentucky. Clinically derived Aspergillus fumigatus NRRL 163 (Q), A. fumigatus NRRL 5109 (R), and A. fumigatus NRRL 6113 (S) were obtained from Northern Regional Research Laboratory (NRRL). Candida auris 384 (K), C. auris 390 (L), and fungal strains 381-400 (including 10 C. auris (AR Bank #381-390), 3 Candida duobushaemulonii (AR Bank #391, AR Bank #392, and AR Bank #394), 2 Candida haemulonii (AR Bank #393 and AR Bank #395), 1 Kodameae ohmeri (AR Bank #396), 1 C. krusei (AR Bank #397), 1 Candida lusitaniae (AR Bank #398), and 2 Saccharomyces cerevisiae strains (AR Bank #399 and AR Bank #400)) were part of a larger fungal library from the AR Bank maintained by the Centers for Disease Control and Prevention (CDC; Atlanta, GA, USA). Filamentous fungi and yeasts were cultivated at 35° C. in RPMI 1640 medium (with L-glutamine, without sodium bicarbonate, Sigma-Aldrich, St. Louis, MO) buffered to a pH of 7.0 with 0.165 M morpholinepropanesulfonic acid (MOPS) buffer (Sigma-Aldrich). For cytotoxicity assays, HepG2 and the mouse macrophage cell line J774A.1 were obtained from University of Kentucky. The human embryonic kidney cell line, HEK-293, was bought from the ATCC. Mammalian cells were grown in Dulbecco's Modified Eagle's Medium (DMEM) (from VWR) with 10% fetal bovine serum (FBS) (from VWR) and 1% Pen/Strep (from ATCC). Cell lines were cultured at 37° C. with 5% CO2 and passaged by trypsinization with 0.05% trypsin: 0.53 mM EDTA (from Sigma-Aldrich).
(§2) From the actively growing yeast culture, 100 µL were then transferred to 900 μL of RPMI 1640 medium and re-adjusted to achieve OD600 of 0.12 (˜1×10^6 CFU/mL). The cell suspension was further diluted to achieve 1:100 in RPMI 1640 medium.

Experiment [2] has as its system Candida duobushaemulonii AR Bank #392. The experiment can be described thus: MIC determination by in vitro antifungal assay. Format: cell-based. On the procedure:
as §1, §2

For experiment [3], the system named is Candida duobushaemulonii AR Bank #394. The experiment can be described thus: MIC determination by in vitro antifungal assay. The class given is cell-based. On the procedure: as §1, §2
Experiment [4] concerns Candida haemulonii AR Bank #393. The experiment is described as follows: MIC determination by in vitro antifungal assay. The class given is cell-based. On the procedure:
as §1, §2

For experiment [5], the system named is Candida haemulonii AR Bank #395. The experiment is described as follows: MIC determination by in vitro antifungal assay. The class given is cell-based. The protocol:
as §1, §2

Experiment [6] deals with Candida krusei AR Bank #397. The experiment is described as follows: MIC determination by in vitro antifungal assay. Format: cell-based. The note with it: Candida strain AR Bank #397. On the procedure:
as §1, §2

The test system of experiment [7] is Candida lusitaniae AR Bank #398. The experiment can be described thus: MIC determination by in vitro antifungal assay. Format: cell-based. The following applies: Candida strain AR Bank #398. On the procedure:
as §1, §2

Experiment [8] has as its system Kodameae ohmeri AR Bank #396. The experiment can be described thus: MIC determination by in vitro antifungal assay. Format: cell-based. The note with it: strain AR Bank #396. The protocol:
as §1, §2

Experiment [9] deals with Saccharomyces cerevisiae AR Bank #399. The experiment is described as follows: MIC determination by in vitro antifungal assay. The class given is cell-based. The protocol: as §1, §2
For experiment [10], the system named is C. albicans ATCC 10231 (strain A) biofilm formation. The experiment is described as follows: Prevention of biofilm formation assay. The class given is cell-based, Candida albicans. On the procedure: Biofilm prevention assays were set up identically to the ordinary MIC experiment, where compounds were diluted, and the fungi added. After overnight growth, the plates were washed as in the biofilm disruption assay and stained and measured in the same fashion.
A large amount of fungal cells were exposed to the monohydrazides at time 0 h to evaluate the effect of these compounds in the prevention of Candida biofilm formation (FIG. 5B). […] Although some of these monohydrazides were able to prevent biofilm formation, none of these compounds had any effect in terms of the disruption of already pre-formed biofilms (FIG. 5A).

Experiment [11] relates to panel of ten C. auris strains (AR Bank #381-390). The experiment can be described thus: MIC determination, summary over the C. auris panel. The note with it: Candidozyma auris; against all ten C. auris strains tested (AR Bank #381-390). The class given is cell-based, Candida auris. The protocol:
as §1, §2

Experiment [12] concerns ten other fungal strains (AR Bank #391-400). The experiment is described as follows: MIC determination, summary over ten additional fungal strains. Format: cell-based. The note with it: read-out: MIC range. The protocol:
as §1, §2

Where [13] appears, read: Candidozyma duobushaemuli, read-out: MIC.
Where [14] appears, read: Candidozyma haemuli, read-out: MIC.
Where [15] appears, read: Pichia kudriavzevii, read-out: MIC.
The mark [16] stands for this setting: Clavispora lusitaniae, read-out: MIC.

Values after ≈ are worked out from the molar mass of the structure shown. Like-named read-outs stand apart in the source and are kept apart here.

In the case of `O=C(NNc1cccc(F)c1)c1ccccn1` [Compound 2a], the MIC is reported as 0.49 μg/mL^−1 in [1]; 0.24 μg/mL^−1 in experiment [2]; 0.49 μg/mL^−1 in experiment [3]; 0.12 μg/mL^−1 in experiment [4]; ≤0.06 μg/mL^−1 in [5]; 0.24 μg/mL^−1 in experiment [6]. The MIC came out at 0.98 μg/mL^−1 in [7], 0.24 μg/mL^−1 in experiment [8] and 1.95 μg/mL^−1 in experiment [9]. Besides, in experiment [10], the “concentration active in prevention of biofilm formation” value is given as 7.8 j·tg mL^−1.

For `O=C(NNc1ccc(F)cc1F)c1ccc(F)cn1` [Compound 3g], the MIC in experiment [11] is 0.12 to 7.8 µg/mL (≈ 0.449 to 29.2 µM).

Take `O=C(NNc1ccc(F)cc1F)c1cnccn1` [Compound 9g]: the MIC in experiment [1] (setting [13]) was determined as 0.49 µg/mL (≈ 1.96 µM); in experiment [2] (setting [13]) it was 0.24 µg/mL (≈ 0.959 µM); in experiment [3] (setting [13]) it was 7.8 µg/mL (≈ 31.2 µM); in experiment [4] (setting [14]) it was 0.24 µg/mL (≈ 0.959 µM); in [5] (setting [14]) it was 1.95 µg/mL (≈ 7.79 µM); in experiment [6] (setting [15]) it was 1.95 µg/mL (≈ 7.79 µM). Also, the MIC in experiment [7] (setting [16]) was 3.9 µg/mL (≈ 15.6 µM); in experiment [8] (read-out: MIC), 0.98 µg/mL (≈ 3.92 µM); in experiment [9] (read-out: MIC) it was 7.8 µg/mL (≈ 31.2 µM); in experiment [11] it was 0.12 to 7.8 µg/mL (≈ 0.48 to 31.2 µM); in [12], 0.06 to 7.8 µg/mL (≈ 0.24 to 31.2 µM).

In the case of `COc1cccc(NNC(=O)c2ccccn2)c1` [Compound 2c], the MIC in [1] is listed as 1.95 μg/mL^−1; in [2] it was 1.95 μg/mL^−1; in experiment [3], 0.98 μg/mL^−1; in experiment [4], 0.49 μg/mL^−1; in experiment [5], 0.49 μg/mL^−1; in experiment [6], 0.49 μg/mL^−1. In addition, the MIC is on record as 1.95 μg/mL^−1 in experiment [7], 0.49 μg/mL^−1 in [8] and 7.8 μg/mL^−1 in experiment [9]. The “concentration active in prevention of biofilm formation” value in [10] is on record as 1.96 j·tg mL^−1.

Regarding `O=C(NNc1ccc(Cl)cc1)c1ccccn1` [Compound 2e], the MIC is listed as 0.98 μg/mL^−1 in [1]; 0.98 μg/mL^−1 in experiment [2]; 0.49 μg/mL^−1 in [3]; 0.49 μg/mL^−1 in experiment [4]; 0.12 μg/mL^−1 in experiment [5]; 0.24 μg/mL^−1 in experiment [6]. The MIC in experiment [7] came to 0.98 μg/mL^−1; in experiment [8], 0.24 μg/mL^−1; in experiment [9] it was 0.98 μg/mL^−1.

With `O=C(NNc1cccc(Cl)c1)c1ccccn1` [Compound 2b], the MIC was 0.24 μg/mL^−1 in experiment [1]; 0.24 μg/mL^−1 in experiment [2]; 0.12 μg/mL^−1 in experiment [3]; 0.12 μg/mL^−1 in experiment [4]; ≤0.06 μg/mL^−1 in experiment [5]; 0.12 μg/mL^−1 in experiment [6]. In addition, the results for the MIC in experiment [7], in [8] and in experiment [9] were 0.98 μg/mL^−1, 0.12 μg/mL^−1 and 0.98 μg/mL^−1, respectively.

`COc1cccc(NNC(=O)c2cnccn2)c1` [Compound 9c]: the MIC is 0.98 µg/mL (≈ 4.01 µM) in [2] (setting [13]); 1.95 µg/mL (≈ 7.98 µM) in experiment [3] (setting [13]); 0.49 µg/mL (≈ 2.01 µM) in [4] (setting [14]); 0.49 µg/mL (≈ 2.01 µM) in experiment [5] (setting [14]); 0.49 µg/mL (≈ 2.01 µM) in experiment [6] (setting [15]); 1.95 µg/mL (≈ 7.98 µM) in experiment [7] (setting [16]). Further, the MIC in [8] (read-out: MIC) is 0.49 µg/mL (≈ 2.01 µM); in [9] (read-out: MIC), 7.8 µg/mL (≈ 31.9 µM); in [11], 0.12 to 7.8 µg/mL (≈ 0.491 to 31.9 µM); in [12], 0.06 to 7.8 µg/mL (≈ 0.246 to 31.9 µM).

Molecule `O=C(NNc1ccc(F)cc1F)c1cccc(F)n1` [Compound 5g] displayed an MIC in experiment [11] of 0.12 to 7.8 µg/mL (≈ 0.449 to 29.2 µM).

Take `O=C(NNc1ccc(F)cc1)c1ccc(Br)cn1` [Compound 4d]: the MIC in experiment [11] lay within 0.12 to 7.8 µg/mL (≈ 0.387 to 25.2 µM).

`O=C(NNc1ccc(F)cc1)c1cccc(F)n1` [Compound 5d] returned an MIC in experiment [11] of 0.06 to 1.95 µg/mL (≈ 0.241 to 7.82 µM).

(Values after patent US20240425464A1, “Substituted Monohydrazides as Potent Antifungal Agents” (University of Kentucky Research Foundation, priority 2023, published 2024).)
